The text below walks through data of US11203577B2, “Sulfonyl-structure-containing triazinone derivatives, their preparation methods and their uses in insect killing and/or bacterium killing” (Nankai University, priority 2017, dated 2021).

For series [1], the system named is Corn southern leaf blight. Put plainly: In vitro fungicidal activity, PDA colony diameter. As to conditions: read-out: Fungicidal activity (%) Corn southern leaf blight. In kind it is cell-based.
A further series deals with Potato late blight. Put plainly: microbe, parasite or virus in culture. It is filed as cell-based. To be noted: Phytophthora infestans, 96 h, read-out: Fungicidal activity (%) Potato late blight.
In the next series the test system is Wheat head blight. Nature of the series: whole plant or invertebrate. In kind it is cell-based. As to conditions: Triticum aestivum, read-out: Fungicidal activity (%) Wheat head blight.
The subject of another series is Maize borers. Put plainly: Test of insecticidal activity against maize borers (leaf immersion). As to conditions: read-out: Mortalities (%) Maize borers.
For another series, the system named is Cotton bollworms. Put plainly: Test of insecticidal activity against cotton bollworms (pesticide mixed into feedstuff). As to conditions: read-out: Mortalities (%) Cotton bollworms.
Another series concerns Rice bakanae disease. Put plainly: In vitro fungicidal activity, PDA colony diameter. To be noted: read-out: Fungicidal activity (%) Rice bakanae disease. In kind it is cell-based.
The test system of series [2] is Cercospora brown spot of peanut. Put plainly: In vitro fungicidal activity, PDA colony diameter. In kind it is cell-based. As to conditions: 96 h, read-out: Fungicidal activity (%) Cercospora brown spot of peanut.
The subject of another series is Sclerotinia rot of colza. Put plainly: In vitro fungicidal activity, PDA colony diameter. In kind it is cell-based. As to conditions: 96 h, read-out: Fungicidal activity (%) Sclerotinia rot of colza.
Another series relates to Armyworms. Nature of the series: Test of insecticidal activity against armyworms (leaf immersion). To be noted: 3-4 days.
A further series concerns Watermelon anthracnose. Put plainly: In vitro fungicidal activity, PDA colony diameter. As to conditions: read-out: Fungicidal activity (%) Watermelon anthracnose. It is filed as cell-based.
A further series deals with Cucumber fusarium wilt. Put plainly: In vitro fungicidal activity, PDA colony diameter. It is filed as cell-based. As to conditions: 96 h, read-out: Fungicidal activity (%) Cucumber fusarium wilt.
Series [3] deals with bean aphides (Aphis laburni Kaltenbach). Put plainly: Test of insecticidal activity against aphides (leaf immersion, checked after 96 h). To be noted: for mortality at 2.5 mg/kg / mortality at 5 mg/kg / mortality at 10 mg/kg / mortality at 100 mg/kg / mortality at 600 mg/kg: Aphis, read-out: Mortalities (%) against aphides.
The subject of a further series is Apple ring rot. Put plainly: In vitro fungicidal activity, PDA colony diameter. In kind it is cell-based. As to conditions: inhibition of colony diameter. Put shortly: (§1)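 Percent growth inhibition derived from colony diameter versus compound-free PDA control after 4 days' culture. Plates contained compound at 50 mg/kg; inoculum was a plug taken from the periphery of a 7-day PDA culture.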

Series [4] relates to Capsicum phytophthora blight. Nature of the series: In vitro fungicidal activity, PDA colony diameter. In kind it is cell-based. As to conditions: 96 h. In outline:
as §1

The test system of a further series is Rice sheath blight. Put plainly: In vitro fungicidal activity, PDA colony diameter. In kind it is cell-based. As to conditions: read-out: Fungicidal activity (%) Rice sheath blight.
Series [5] has as its system mosquito larvae (Culer pipiens pallens). Nature of the series: Test of insecticidal activity against mosquito larvae (checked after 24 h).
The subject of another series is Tomato early blight. Put plainly: In vitro fungicidal activity, PDA colony diameter. It is filed as cell-based, Alternaria solani. To be noted: read-out: Fungicidal activity (%) Tomato early blight.
The test system of a further series is Wheat sheath blight. Put plainly: In vitro fungicidal activity, PDA colony diameter. In kind it is cell-based. To be noted: read-out: Fungicidal activity (%) Wheat sheath blight.
Setting [6] is: 50 mg/kg, inhibition of colony diameter.
The mark [7] stands for this setting: 24 h, read-out: Mortalities (%) against mosquito larvae.

Each structure is given as a SMILES string. Where two headings read alike, the source gives them in different places.

Experimental for Cotton bollworms: Method of testing against cotton bollworms: the pesticide is mixed into the feedstuff, i.e., 3 mL prepared solution is added into about 27 g freshly prepared feedstuff; thus, required concentration is obtained by diluting by 10 times.

Consider `CC1=NNC(=O)N(/N=C/c2cccnc2)C1` [Pymetrozine, reference compound], for which the inhibition at 50 mg/kg in series [1] (setting [6]) stood at 16.7%; in the series on Wheat head blight it was 13.3%; in the series on Rice bakanae disease (setting [6]), 33.3%; in the series on Watermelon anthracnose (setting [6]), 16.7%; in the series with Apple ring rot it was 27.6%; in the series on Rice sheath blight (setting [6]), 19%. In addition, the results for the inhibition at 50 mg/kg with Tomato early blight (setting [6]) and in the series on Wheat sheath blight (setting [6]) were 23.8% and 63.6%, respectively. The inhibition of growth at 50 mg/kg in the series with Potato late blight is 22.2%; in series [2] (setting [6]) it was 15.8%; in the series on Sclerotinia rot of colza (setting [6]) it was 31.7%; in the series on Cucumber fusarium wilt (setting [6]), 5%; in series [4] it was 36.7%. Moreover, the mortality at 600 mg/kg was 35% with Maize borers, 20% in the series on Cotton bollworms and 100% in series [3] (96 h). Moreover, the “Mortalities (%) Armyworms” value with Armyworms (600 mg/kg) was 50%. For the same compound, the “Mortalities (%) against aphides” value in series [3] (2.5 mg/kg, 96 h) is reported as “no insecticidal activity”. Further, the mortality at 2.5 mg/kg in [3] (96 h) was determined as 0%. For the same compound, the mortality at 5 mg/kg in series [3] (96 h) is 30%; in series [5] (setting [7]) it was 40%. For the same compound, the mortality at 10 mg/kg in series [3] (96 h) was found to be 90%; in [5] (setting [7]) it was 100%. Besides, in series [3] (96 h), the mortality at 100 mg/kg worked out at 100%.
For `CC1=NNC(=O)N(N(S(=O)(=O)c2ccc([N+](=O)[O-])cc2)S(=O)(=O)c2ccc([N+](=O)[O-])cc2)C1` [Ib-7, N-(6-methyl-3-oxo-2,3-dihydro-1,2,4-triazin-4(5H)-yl)-4-nitro-N-(4-nitrobenzenesulfonyl)-benzenesulfonamide], the inhibition at 50 mg/kg in [1] was 12.5%; in the series on Wheat head blight, 23.3%; with Rice bakanae disease it was 44.4%; with Watermelon anthracnose, 20.8%; in the series with Apple ring rot it was 0%; in the series with Rice sheath blight it was 27%. Moreover, the inhibition at 50 mg/kg with Tomato early blight was 23.8%; in the series with Wheat sheath blight it was 59.1%. Further, the inhibition of growth at 50 mg/kg in the series on Potato late blight came to 25.9%; in series [2] it was 21.1%; with Sclerotinia rot of colza, 30%; with Cucumber fusarium wilt it was 5%; in series [4], 36.7%. In addition, the mortality at 600 mg/kg in the series with Maize borers came to 15%; with Cotton bollworms, 40%; in series [3] (96 h), 100%. For the same compound, the “Mortalities (%) Armyworms” value in the series with Armyworms (600 mg/kg) is 20%. The mortality at 10 mg/kg in series [3] (96 h) is 25%; in series [5] (setting [7]), 60%. Further, the mortality at 100 mg/kg in [3] (96 h) was 85%.
For the compound `CC1=NNC(=O)N(NS(=O)(=O)c2ccc(C(C)(C)C)cc2)C1` [Ia-15, 4-tert-butyl-N-(6-methyl-3-oxo-2,3-dihydro-1,2,4-triazin-4(5H)-yl)-benzenesulfonamide], the inhibition at 50 mg/kg in series [1] (setting [6]) is 9.3%; in the series with Wheat head blight it was 13.5%; in the series with Rice bakanae disease (setting [6]), 24.1%; with Watermelon anthracnose (setting [6]), 14.7%; in the series with Apple ring rot it was 16.2%; in the series on Rice sheath blight (setting [6]), 17.4%. Moreover, the inhibition at 50 mg/kg in the series with Tomato early blight (setting [6]) worked out at 20.9%; in the series with Wheat sheath blight (setting [6]) it was 9.3%. Further, the inhibition of growth at 50 mg/kg in the series on Potato late blight was determined as 9.7%; in [2] (setting [6]), 12%; in the series with Sclerotinia rot of colza (setting [6]), 15.8%; in the series on Cucumber fusarium wilt (setting [6]), 8.8%; in series [4], 5.6%. The mortality at 600 mg/kg was 45% in the series with Maize borers, 40% with Cotton bollworms and 100% in series [3] (96 h). For the same compound, in the series on Armyworms (600 mg/kg), the “Mortalities (%) Armyworms” value came to 60%. The mortality at 2.5 mg/kg in [3] (96 h) worked out at 10%. Also, the mortality at 5 mg/kg in series [3] (96 h) worked out at 85%; in [5] (setting [7]), 100%. The mortality at 10 mg/kg in series [3] (96 h) and in series [5] (setting [7]) was 100% each time. Moreover, the mortality at 100 mg/kg in series [3] (96 h) worked out at 100%. Also, in series [5] (setting [7]), the mortality at 2 mg/kg came to 40%.
As to `CC1=NNC(=O)N(NS(=O)(=O)Cc2ccccc2)C1` [Ia-7, N-(6-methyl-3-oxo-2,3-dihydro-1,2,4-triazin-4(5H)-yl)-phenylmethylsulfonamide], the inhibition at 50 mg/kg stood at 20.8% in series [1] (setting [6]); 30% in the series with Wheat head blight; 38.9% with Rice bakanae disease (setting [6]); 20.8% in the series on Watermelon anthracnose (setting [6]); 41.4% with Apple ring rot; 30.2% in the series on Rice sheath blight (setting [6]). The values for the inhibition at 50 mg/kg in the series on Tomato early blight and with Wheat sheath blight (setting [6]) were 33.3% and 63.6%, respectively. Further, the inhibition of growth at 50 mg/kg with Potato late blight worked out at 33.3%; in series [2] (setting [6]) it was 15.8%; in the series on Sclerotinia rot of colza (setting [6]), 31.7%; in the series on Cucumber fusarium wilt (setting [6]), 0%; in [4], 36.7%. The values for the mortality at 600 mg/kg (in the series on Maize borers; in the series on Cotton bollworms; in series [3] (96 h)) were 0%, 35% and 100%, respectively. The “Mortalities (%) Armyworms” value in the series with Armyworms (600 mg/kg) is given as 0%. Besides, the mortality at 10 mg/kg turned out to be 20% in series [3] (96 h) and 70% in series [5] (setting [7]). In [3] (96 h), the mortality at 100 mg/kg was determined as 75%.
Take `CC1=NNC(=O)N(NS(=O)(=O)c2ccc(Br)cc2)C1` [Ia-22, 4-bromo-N-(6-methyl-3-oxo-2,3-dihydro-1,2,4-triazin-4(5H)-yl)-benzenesulfonamide]: the inhibition at 50 mg/kg in series [1] (setting [6]) is 3.1%; in the series on Wheat head blight, 16.2%; with Rice bakanae disease (setting [6]), 17.2%; with Watermelon anthracnose (setting [6]), 56.3%; with Apple ring rot it was 37.8%; in the series on Rice sheath blight (setting [6]), 23.2%. Further, the inhibition at 50 mg/kg was 6% in the series with Tomato early blight (setting [6]) and 8.7% in the series on Wheat sheath blight (setting [6]). The inhibition of growth at 50 mg/kg with Potato late blight worked out at 25%; in series [2] (setting [6]), 16%; in the series with Sclerotinia rot of colza (setting [6]), 21%; in the series with Cucumber fusarium wilt (setting [6]), 14.7%; in series [4], 27.8%. In addition, the mortality at 200 mg/kg with Maize borers was found to be 65%; in the series with Cotton bollworms, 80%. Also, the mortality at 600 mg/kg (with Maize borers; in the series with Cotton bollworms; in series [3] (96 h)) was 100% in each case. Also, the “Mortalities (%) Armyworms” value with Armyworms (200 mg/kg) worked out at 70%; in the series with Armyworms (600 mg/kg), 100%. Also, the “insecticidal activity against aphides compared with pymetrozine” value in series [3] (5 mg/kg) is on record as “equivalent to the insecticidal activity of pymetrozine”. Besides, the mortality at 5 mg/kg came out at 40% in [3] (96 h) and 100% in series [5] (setting [7]). The mortality at 10 mg/kg in [3] (96 h) and in series [5] (setting [7]) was 100% in each case. The mortality at 100 mg/kg in series [3] (96 h) amounted to 100%. For the same compound, the mortality at 0.5 mg/kg in series [5] (setting [7]) was determined as 40%. In addition, the mortality at 1 mg/kg in series [5] (setting [7]) stood at 100%. In [5] (setting [7]), the mortality at 2 mg/kg is 100%. Besides, in series [5] (in vivo), the “insecticidal activity against mosquito larvae” value is “relatively high insecticidal activity”.
Turning to `CCCCS(=O)(=O)N(N1CC(C)=NNC1=O)S(=O)(=O)CCCC` [Ib-4, N-(n-butylsulfonyl)-N-(6-methyl-3-oxo-2,3-dihydro-1,2,4-triazin-4(5H)-yl)-butyl-1-sulfonamide], the inhibition at 50 mg/kg in series [1] (setting [6]) was 20.8%; in the series with Wheat head blight, 3.3%; in the series on Rice bakanae disease (setting [6]), 50%; with Watermelon anthracnose (setting [6]), 29.2%; with Apple ring rot, 27.6%; in the series with Rice sheath blight (setting [6]), 27%. The values for the inhibition at 50 mg/kg in the series with Tomato early blight (setting [6]) and in the series on Wheat sheath blight (setting [6]) were 19% and 65.5%, respectively. For the same compound, the inhibition of growth at 50 mg/kg turned out to be 33.3% with Potato late blight; 15.8% in [2] (setting [6]); 43.3% in the series with Sclerotinia rot of colza (setting [6]); 20% in the series with Cucumber fusarium wilt (setting [6]); 34.7% in series [4]. Moreover, the mortality at 600 mg/kg in the series with Maize borers worked out at 10%; with Cotton bollworms, 45%; in series [3] (96 h), 90%. Further, in the series on Armyworms (600 mg/kg), the “Mortalities (%) Armyworms” value worked out at 15%. Moreover, in [5] (setting [7]), the mortality at 10 mg/kg was 75%.
